The values below come from PubChem BioAssay AID1259411 (Chemical Carcinogenesis Research Information System (CCRIS), 2018).

The data set has as its system rodent carcinogenicity bioassays, tumor incidence. The data set is described as follows: CCRIS carcinogenicity studies. Put shortly: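 Archive of carcinogenicity, mutagenicity, tumor promotion and tumor inhibition results drawn from journals, NCI reports and other sources, expert-reviewed; covers 1985-2011 and is no longer updated.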

The source made the active and inactive calls. How the calls were made is not given here.

With `O=C([O-])c1cc(N=Nc2ccc(-c3ccc(N/N=c4/c(=O)cc/c(=N\Nc5cc(S(=O)(=O)[O-])ccc5[O-])c4=O)cc3)cc2)ccc1[O-].[Cu+2].[Na+].[Na+]`, the carcinogen call reads like this: (Species: RAT, Strain/Sex: F344/FEMALE, Route: ORAL, Dose: 0, 190, 375, 750, 1500, 3000 PPM IN DIET FOR 91 D (STUDY DURATION: 93 D), Dose: 0, 190, 375, 750, 1500, 3000 PPM IN DIET FOR 91 D (STUDY DURATION: 93 D), Tumor Site: Type of Lesion: LIVER: HEPATOCELLULAR CARCINOMA OR NEOPLASTIC NODULE, FOCI OF CELLULAR ALTERATION OR BASOPHILIC FOCI) “active; positive”; (Species: RAT, Strain/Sex: F344/MALE, Route: ORAL, Dose: 0, 190, 375, 750, 1500, 3000 PPM IN DIET FOR 91 D (STUDY DURATION: 93 D), Dose: 0, 190, 375, 750, 1500, 3000 PPM IN DIET FOR 91 D (STUDY DURATION: 93 D), Tumor Site: Type of Lesion: LIVER: FOCI OF CELLULAR ALTERATION OR BASOPHILIC FOCI) “active; positive”.

Turning to `O=S(=O)(O)c1cc(S(=O)(=O)O)c2c(N=Nc3ccc(S(=O)(=O)O)c4ccccc34)c(O)ccc2c1`, the carcinogen call was “inactive; negative” (Species: RAT, Strain/Sex: WISTAR/FEMALE, Route: ORAL, Dose: 0, 50, 500, 1250 MG/KG/D IN DIET TO PUPS OF PARENTS GIVEN THE SAME DIETARY DOSE LEVELS FOR 60 D PRIOR TO MATING (STUDY D, Dose: 0, 50, 500, 1250 MG/KG/D IN DIET TO PUPS OF PARENTS GIVEN THE SAME DIETARY DOSE LEVELS FOR 60 D PRIOR TO MATING (STUDY D) and “inactive; negative” (Species: RAT, Strain/Sex: WISTAR/MALE, Route: ORAL, Dose: 0, 50, 500, 1250 MG/KG/D IN DIET TO PUPS OF PARENTS GIVEN THE SAME DIETARY DOSE LEVELS FOR 60 D PRIOR TO MATING (STUDY D, Dose: 0, 50, 500, 1250 MG/KG/D IN DIET TO PUPS OF PARENTS GIVEN THE SAME DIETARY DOSE LEVELS FOR 60 D PRIOR TO MATING (STUDY D).

Take `Clc1cc2c(c(Cl)c1Cl)Oc1cc(Cl)c(Cl)c(Cl)c1O2`: the carcinogen call is “active; positive” (Species: MOUSE, Strain/Sex: B6C3F1/FEMALE, Route: GAVAGE, Dose: 0, 2.5, 5.0, 10.0 UG/KG/WK (9:1 CORN OIL-ACETONE, 2 D/WK) FOR 104 WK (STUDY DURATION: 105-108 WK), Dose: 0, 2.5, 5.0, 10.0 UG/KG/WK (9:1 CORN OIL-ACETONE, 2 D/WK) FOR 104 WK (STUDY DURATION: 105-108 WK), Tumor Site: Type of Lesion: LIVER: HEPATOCELLULAR ADENOMA OR CARCINOMA); “active; positive” (Species: MOUSE, Strain/Sex: B6C3F1/MALE, Route: GAVAGE, Dose: 0, 1.25, 2.5, 5 UG/KG/WK (9:1 CORN OIL-ACETONE, 2 D/WK) FOR 104 WK (STUDY DURATION: 105-108 WK), Dose: 0, 1.25, 2.5, 5 UG/KG/WK (9:1 CORN OIL-ACETONE, 2 D/WK) FOR 104 WK (STUDY DURATION: 105-108 WK), Tumor Site: Type of Lesion: LIVER: HEPATOCELLULAR ADENOMA, CARCINOMA); “inactive; negative” (Species: MOUSE, Strain/Sex: SWISS/FEMALE, Route: DERMAL, Dose: 0, 0.01 UG (SUSPENDED IN 0.1 ML ACETONE APPLIED 3 DAYS/WK)); “inactive; negative” (Species: MOUSE, Strain/Sex: SWISS/MALE, Route: DERMAL, Dose: 0, 0.01 UG (SUSPENDED IN 0.1 ML ACETONE APPLIED 3 DAYS/WK)); “active; positive” (Species: RAT, Strain/Sex: OSBORNE-MENDEL/FEMALE, Route: GAVAGE, Dose: 0, 1.25, 2.5, 5 UG/KG/WK (9:1 CORN OIL-ACETONE, 2 D/WK) FOR 104 WK (STUDY DURATION: 105-108 WK), Dose: 0, 1.25, 2.5, 5 UG/KG/WK (9:1 CORN OIL-ACETONE, 2 D/WK) FOR 104 WK (STUDY DURATION: 105-108 WK), Tumor Site: Type of Lesion: LIVER: NEOPLASTIC NODULE, HEPATOCELLULAR CARCINOMA); “equivocal” (Species: RAT, Strain/Sex: OSBORNE-MENDEL/MALE, Route: GAVAGE, Dose: 0, 1.25, 2.5, 5 UG/KG/WK (9:1 CORN OIL-ACETONE, 2 D/WK) FOR 104 WK (STUDY DURATION: 105-108 WK), Dose: 0, 1.25, 2.5, 5 UG/KG/WK (9:1 CORN OIL-ACETONE, 2 D/WK) FOR 104 WK (STUDY DURATION: 105-108 WK), Tumor Site: Type of Lesion: LIVER: NEOPLASTIC NODULE, HEPATOCELLULAR CARCINOMA).

Take `[Ni]=[Te]`: the carcinogen call (Species: RAT, Strain/Sex: F344/MALE, Route: INTRAMUSCULAR, Tumor Site: Type of Lesion: INJECTION SITE: SARCOMA) is “active; positive”.

`Cc1c(C)c2c3c(ccc2c2ccccc12)[C@@H](O)[C@H](O)[C@@H]1O[C@H]31`: the carcinogen call was “active; positive” (Species: MOUSE, Strain/Sex: ICR/FEMALE, Route: INTRAPERITONEAL, Dose: 0, 8 NMOL IN 5 µL DMSO TO PUPS ON D 1/OF LIFE THEN 16 NMOL IN 10 µL ON D 8 AND 3 NMOL IN 20 µL D 15 (STUDY DURATION: 35, Tumor Site: Type of Lesion: LUNG: TUMOR) and “active; positive” (Species: MOUSE, Strain/Sex: ICR/MALE, Route: INTRAPERITONEAL, Dose: 0, 8 NMOL IN 5 µL DMSO TO PUPS ON D 1/OF LIFE THEN 16 NMOL IN 10 µL ON D 8 AND 3 NMOL IN 20 µL ON D 15 (STUDY DURATION:, Tumor Site: Type of Lesion: LUNG: TUMOR, LIVER: TUMOR).
